Columns and labels:
Assay type in all cases: cell-based, human
HOP-92 = assay: NCI 60 cell line screen (SRB), Non-Small Cell Lung Cancer
Text: (§1) The operation of this screen utilizes 60 different human tumor cell lines, representing leukemia, melanoma and cancers of the lung, colon, brain, ovary, breast, prostate, and kidney. The aim is to prioritize for further evaluation, synthetic compounds or natural product samples showing selective growth inhibition or cell killing of particular tumor cell lines. This screen is unique in that the complexity of a 60 cell line dose response produced by a given compound results in a biological response pattern which can be utilized in pattern recognition algorithms. Using these algorithms, it is possible to assign a putative mechanism of action to a test compound, or to determine that the response pattern is unique and not similar to that of any of the standard prototype compounds included in the NCl database (see DTP Overview tab). In addition, following characterization of various cellular molecular targets in the 60 cell lines, it may be possible to select compounds most likely to interact with a specific molecular target.
(§2) The human tumor cell lines of the cancer screening panel are grown in RPMI 1640 medium containing 5% fetal bovine serum and 2 mM L-glutamine. For a typical screening experiment, cells are inoculated into 96 well microtiter plates in 100 μL at plating densities ranging from 5,000 to 40,000 cells/well depending on the doubling time of individual cell lines. After cell inoculation, the microtiter plates are incubated at 37° C., 5% CO2, 95% air and 100% relative humidity for 24 h prior to addition of experimental drugs.
(§3) After 24 h, two plates of each cell line are fixed in situ with TCA, to represent a measurement of the cell population for each cell line at the time of drug addition (Tz). Experimental drugs are solubilized in dimethyl sulfoxide at 400-fold the desired final maximum test concentration and stored frozen prior to use. At the time of drug addition, an aliquot of frozen concentrate is thawed and diluted to twice the desired final maximum test concentration with complete medium containing 50 μg/ml gentamicin. Additional four, 10-fold or ½ log serial dilutions are made to provide a total of five drug concentrations plus control. Aliquots of 100 μl of these different drug dilutions are added to the appropriate microtiter wells already containing 100 μl of medium, resulting in the required final drug concentrations.
(§4) Following drug addition, the plates are incubated for an additional 48 h at 37° C., 5% CO2, 95% air, and 100% relative humidity. For adherent cells, the assay is terminated by the addition of cold TCA. Cells are fixed in situ by the gentle addition of 50 μl of cold 50% (w/v) TCA (final concentration, 10% TCA) and incubated for 60 minutes at 4° C. The supernatant is discarded, and the plates are washed five times with tap water and air dried. Sulforhodamine B (SRB) solution (100 μl) at 0.4% (w/v) in 1% acetic acid is added to each well, and plates are incubated for 10 minutes at room temperature. After staining, unbound dye is removed by washing five times with 1% acetic acid and the plates are air dried. Bound stain is subsequently solubilized with 10 mM trizma base, and the absorbance is read on an automated plate reader at a wavelength of 515 nm. For suspension cells, the methodology is the same except that the assay is terminated by fixing settled cells at the bottom of the wells by gently adding 50 μl of 80% TCA (final concentration, 16% TCA). Using the seven absorbance measurements [time zero, (Tz), control growth, (C), and test growth in the presence of drug at the five concentration levels (Ti)], the percentage growth is calculated at each of the drug concentrations levels. Percentage growth inhibition is calculated as: [(Ti−Tz)/(C−Tz)]×100 for concentrations for which Ti>/=Tz [(Ti−Tz)/Tz]×100 for concentrations for which Ti<Tz.
(§5) Three dose response parameters are calculated for each experimental agent. […]

NCI-H522 = assay: as above
Text: as §1, §2, §3, §4, §5

NCI-H460 = assay: as above
Text: as §1, §2, §3, §4, §5

MDA-MB-435 = assay: NCI 60 cell line screen (SRB), Breast Cancer
Text: as §1, §2, §3, §4, §5

MDA-MB-231/ATCC = assay: NCI 60 cell line screen (SRB), Breast Cancer
Text: as §1, §2, §3, §4, §5

MCF7 = assay: NCI 60 cell line screen (SRB), Breast Cancer
Text: as §1, §2, §3, §4, §5

BT-549 = assay: NCI 60 cell line screen (SRB), Breast Cancer
Text: as §1, §2, §3, §4, §5

HS 578T = assay: NCI 60 cell line screen (SRB), Breast Cancer
Text: as §1, §2, §3, §4, §5

T-47D = assay: NCI 60 cell line screen (SRB), Breast Cancer
Text: as §1, §2, §3, §4, §5

[1] = read-out: LC50 (the source's name)

Structure (SMILES): COc1cccc(CCNC(=O)CC(c2ccccc2)(c2ccccc2)c2ccccc2)c1 [Compound Z3]
- GI50 (HOP-92; HOP-92): > 100 µM
- TGI (HOP-92; HOP-92): >1.00E−04
- Percent Growth (HOP-92; HOP-92, Log10 Concentration −4.0): 68%
- Percent Growth (HOP-92; HOP-92, Log10 Concentration −5.0): 70%
- Percent Growth (HOP-92; HOP-92, Log10 Concentration −6.0): 94%
- Percent Growth (HOP-92; HOP-92, Log10 Concentration −7.0): 94%
- Percent Growth (HOP-92; HOP-92, Log10 Concentration −8.0): 99%
- CC50 (HOP-92; HOP-92, read-out: LC50 (the source's name)): > 100 µM
- TGI (NCI-H522; NCI-H522): 8.45E−05
- Percent Growth (NCI-H522; NCI-H522, Log10 Concentration −4.0): −1%
- Percent Growth (NCI-H522; NCI-H522, Log10 Concentration −5.0): 12%
- Percent Growth (NCI-H522; NCI-H522, Log10 Concentration −6.0): 58%
- Percent Growth (NCI-H522; NCI-H522, Log10 Concentration −7.0): 46%
- Percent Growth (NCI-H522; NCI-H522, Log10 Concentration −8.0): 67%
- CC50 (NCI-H522; NCI-H522, read-out: LC50 (the source's name)): > 100 µM
- GI50 (NCI-H460; NCI-H460): 10.5 µM
- TGI (NCI-H460; NCI-H460): >1.00E−04
- Percent Growth (NCI-H460; NCI-H460, Log10 Concentration −4.0): 18%
- Percent Growth (NCI-H460; NCI-H460, Log10 Concentration −5.0): 51%
- Percent Growth (NCI-H460; NCI-H460, Log10 Concentration −6.0): 90%
- Percent Growth (NCI-H460; NCI-H460, Log10 Concentration −7.0): 117%
- Percent Growth (NCI-H460; NCI-H460, Log10 Concentration −8.0): 97%
- CC50 (NCI-H460; NCI-H460, read-out: LC50 (the source's name)): > 100 µM
- GI50 (MDA-MB-435; MDA-MB-435): 6.5 µM
- TGI (MDA-MB-435; MDA-MB-435): >1.00E−04
- Percent Growth (MDA-MB-435; MDA-MB-435, Log10 Concentration −4.0): 28%
- Percent Growth (MDA-MB-435; MDA-MB-435, Log10 Concentration −5.0): 40%
- Percent Growth (MDA-MB-435; MDA-MB-435, Log10 Concentration −6.0): 91%
- Percent Growth (MDA-MB-435; MDA-MB-435, Log10 Concentration −7.0): 109%
- Percent Growth (MDA-MB-435; MDA-MB-435, Log10 Concentration −8.0): 92%
- CC50 (MDA-MB-435; MDA-MB-435, read-out: LC50 (the source's name)): > 100 µM
- GI50 (MDA-MB-231/ATCC): > 100 µM
- TGI (MDA-MB-231/ATCC): >1.00E−04
- Percent Growth (MDA-MB-231/ATCC; Log10 Concentration −4.0): 147%
- Percent Growth (MDA-MB-231/ATCC; Log10 Concentration −5.0): 75%
- Percent Growth (MDA-MB-231/ATCC; Log10 Concentration −6.0): 59%
- Percent Growth (MDA-MB-231/ATCC; Log10 Concentration −7.0): 69%
- Percent Growth (MDA-MB-231/ATCC; Log10 Concentration −8.0): 68%
- CC50 (MDA-MB-231/ATCC; [1]): > 100 µM
- GI50 (MCF7; MCF7): 21.5 µM
- TGI (MCF7; MCF7): >1.00E−04
- Percent Growth (MCF7; MCF7, Log10 Concentration −4.0): 31%
- Percent Growth (MCF7; MCF7, Log10 Concentration −5.0): 60%
- Percent Growth (MCF7; MCF7, Log10 Concentration −6.0): 85%
- Percent Growth (MCF7; MCF7, Log10 Concentration −7.0): 116%
- Percent Growth (MCF7; MCF7, Log10 Concentration −8.0): 91%
- CC50 (MCF7; MCF7, read-out: LC50 (the source's name)): > 100 µM
- GI50 (BT-549; BT-549): > 100 µM
- TGI (BT-549; BT-549): >1.00E−04
- Percent Growth (BT-549; BT-549, Log10 Concentration −4.0): 69%
- Percent Growth (BT-549; BT-549, Log10 Concentration −5.0): 81%
- Percent Growth (BT-549; BT-549, Log10 Concentration −6.0): 107%
- Percent Growth (BT-549; BT-549, Log10 Concentration −7.0): 126%
- Percent Growth (BT-549; BT-549, Log10 Concentration −8.0): 100%
- CC50 (BT-549; BT-549, read-out: LC50 (the source's name)): > 100 µM
- GI50 (HS 578T; MS 578T): > 100 µM
- TGI (HS 578T; MS 578T): >1.00E−04
- Percent Growth (HS 578T; MS 578T, Log10 Concentration −4.0): 55%
- Percent Growth (HS 578T; MS 578T, Log10 Concentration −5.0): 85%
- Percent Growth (HS 578T; MS 578T, Log10 Concentration −6.0): 101%
- Percent Growth (HS 578T; MS 578T, Log10 Concentration −7.0): 126%
- Percent Growth (HS 578T; MS 578T, Log10 Concentration −8.0): 101%
- CC50 (HS 578T; [1]): > 100 µM
- GI50 (T-47D): > 100 µM
- TGI (T-47D): >1.00E−04
- Percent Growth (T-47D; Log10 Concentration −4.0): 84%
- Percent Growth (T-47D; Log10 Concentration −5.0): 55%
- Percent Growth (T-47D; Log10 Concentration −6.0): 78%
- Percent Growth (T-47D; Log10 Concentration −7.0): 108%
- Percent Growth (T-47D; Log10 Concentration −8.0): 78%
- CC50 (T-47D; [1]): > 100 µM
